For one test, the species on record is Homo sapiens. Put plainly: Selectivity ratio of IC50 for human PLD1 to IC50 for human GST-tagged PLD2A.
The next test concerns the target T1, Phospholipase D1 (Homo sapiens, UniProt Q13393).
T1 sequence (Q13393 whole entry): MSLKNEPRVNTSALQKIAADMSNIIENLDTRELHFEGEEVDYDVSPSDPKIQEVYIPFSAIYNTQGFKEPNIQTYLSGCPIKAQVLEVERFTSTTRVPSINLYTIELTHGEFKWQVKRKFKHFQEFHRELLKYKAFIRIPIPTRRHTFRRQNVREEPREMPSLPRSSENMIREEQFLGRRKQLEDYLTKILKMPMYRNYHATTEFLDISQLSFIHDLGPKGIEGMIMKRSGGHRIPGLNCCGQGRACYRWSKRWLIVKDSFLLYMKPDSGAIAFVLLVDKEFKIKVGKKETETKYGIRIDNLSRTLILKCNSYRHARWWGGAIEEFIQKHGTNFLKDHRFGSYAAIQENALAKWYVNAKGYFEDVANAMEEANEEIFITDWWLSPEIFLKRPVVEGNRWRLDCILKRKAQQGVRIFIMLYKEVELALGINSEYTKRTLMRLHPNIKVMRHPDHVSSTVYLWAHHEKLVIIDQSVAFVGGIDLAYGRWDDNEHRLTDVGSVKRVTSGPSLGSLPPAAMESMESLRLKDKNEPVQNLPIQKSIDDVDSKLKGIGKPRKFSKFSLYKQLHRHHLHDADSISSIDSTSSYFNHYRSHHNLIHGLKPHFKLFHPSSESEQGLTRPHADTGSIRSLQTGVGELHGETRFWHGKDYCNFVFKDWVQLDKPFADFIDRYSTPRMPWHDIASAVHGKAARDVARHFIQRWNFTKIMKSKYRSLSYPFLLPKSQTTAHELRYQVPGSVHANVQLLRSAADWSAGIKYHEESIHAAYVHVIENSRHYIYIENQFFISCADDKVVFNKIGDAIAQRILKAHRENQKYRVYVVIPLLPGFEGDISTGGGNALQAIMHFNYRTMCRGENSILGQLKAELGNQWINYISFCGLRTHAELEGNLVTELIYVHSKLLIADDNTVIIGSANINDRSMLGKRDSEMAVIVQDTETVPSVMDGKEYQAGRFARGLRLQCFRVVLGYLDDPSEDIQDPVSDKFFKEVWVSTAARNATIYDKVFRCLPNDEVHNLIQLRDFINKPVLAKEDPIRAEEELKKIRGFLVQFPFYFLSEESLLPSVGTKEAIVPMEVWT

In a further test the target is Phospholipase D2 (Homo sapiens, UniProt O14939).
Test [1] concerns the target T2, Phospholipase D1 (Homo sapiens) (UniProt Q13393).
T2 sequence (whole entry): T1 sequence (Q13393 whole entry)
In kind it is cell-based. The settings on record: MDA-MB-231, 10 uM.

Activity calls are given as the source filed them. The calls are words filed in the database; no cut-off is given here.

The term IC50 denotes the concentration at which inhibition is half-maximal.

Phospholipase D2, sequence (O14939 whole entry): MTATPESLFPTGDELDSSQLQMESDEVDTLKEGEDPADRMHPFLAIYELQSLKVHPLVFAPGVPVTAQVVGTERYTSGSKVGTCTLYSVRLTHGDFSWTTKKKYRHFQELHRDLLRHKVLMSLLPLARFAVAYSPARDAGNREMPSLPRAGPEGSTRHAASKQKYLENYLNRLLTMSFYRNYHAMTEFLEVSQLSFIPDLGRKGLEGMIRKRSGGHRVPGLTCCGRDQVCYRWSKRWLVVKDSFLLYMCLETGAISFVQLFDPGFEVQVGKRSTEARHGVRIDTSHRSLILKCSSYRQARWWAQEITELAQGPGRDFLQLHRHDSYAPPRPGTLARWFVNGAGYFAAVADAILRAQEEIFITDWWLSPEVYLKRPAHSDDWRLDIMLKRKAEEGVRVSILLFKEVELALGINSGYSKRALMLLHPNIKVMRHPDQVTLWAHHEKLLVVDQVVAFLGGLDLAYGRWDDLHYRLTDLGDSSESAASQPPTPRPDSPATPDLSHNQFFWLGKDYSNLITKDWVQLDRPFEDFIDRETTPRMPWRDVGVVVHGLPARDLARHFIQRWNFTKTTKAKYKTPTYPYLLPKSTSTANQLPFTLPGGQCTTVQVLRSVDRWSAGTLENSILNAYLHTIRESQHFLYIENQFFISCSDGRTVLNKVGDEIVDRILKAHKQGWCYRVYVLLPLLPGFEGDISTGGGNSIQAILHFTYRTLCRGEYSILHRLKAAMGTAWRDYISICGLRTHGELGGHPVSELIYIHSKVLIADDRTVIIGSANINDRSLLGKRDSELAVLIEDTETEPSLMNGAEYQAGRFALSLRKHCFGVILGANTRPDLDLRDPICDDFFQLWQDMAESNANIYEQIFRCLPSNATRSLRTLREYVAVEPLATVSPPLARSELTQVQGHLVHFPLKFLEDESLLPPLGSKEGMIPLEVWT
Description for Phospholipase D2: Inhibition of human GST-tagged PLD2A in human HEK293 cells

Regarding `O=C(NCCN1CCC2(CC1)C(=O)NCN2c1ccc(Br)cc1)c1ccc2ccccc2c1`, the Selectivity ratio in the test listed under Homo sapiens stood at 17. Also, the IC50 on Phospholipase D1 worked out at 5900 nM; against Phospholipase D2, 350 nM.

As for `O=C(NCCN1CCC2(CC1)C(=O)NCN2c1ccc(F)cc1)c1ccc(F)cc1`, the Selectivity ratio in the test filed under Homo sapiens was found to be 23. For the same molecule, the IC50 amounted to 14000 nM on Phospholipase D1 and 610 nM against Phospholipase D2.

For `O=C(NCCN1CCC2(CC1)C(=O)NCN2c1ccc(F)cc1)c1cc2cc(F)ccc2[nH]1`, the Selectivity ratio in the test listed under Homo sapiens is 9. Further, the half-maximal inhibitory concentration (IC50) worked out at 290 nM against Phospholipase D1 and 30 nM against Phospholipase D2.

As for `O=C(NCCN1CCC2(CC1)C(=O)NCN2c1cccc(F)c1)c1cnc2ccccc2c1`, the Selectivity ratio in the test listed under Homo sapiens came to 40. In addition, the results for the IC50 against Phospholipase D1 and against Phospholipase D2 were 2500 nM and 63 nM, respectively.

Take `C[C@@H](CN1CCC(n2c(=O)[nH]c3cc(Br)ccc32)CC1)NC(=O)[C@H]1C[C@@H]1c1ccccc1`: in test [1], the inhibition result was “Active”.

Regarding `O=C(NCCN1CCC2(CC1)C(=O)NCN2c1ccc(Cl)cc1)c1cc2cc(F)ccc2[nH]1`, the Selectivity ratio in the test listed under Homo sapiens worked out at 7. Besides, the 50% inhibitory concentration (IC50) at Phospholipase D1 came out at 335 nM; on Phospholipase D2 it was 50 nM.

`O=C(NCCN1CCC2(CC1)C(=O)NCN2c1ccc(F)c(F)c1)c1cc2cc(F)ccc2[nH]1`: the Selectivity ratio in the test listed under Homo sapiens is 4. Further, the figures for the IC50 against Phospholipase D1 and on Phospholipase D2 were 390 nM and 100 nM, respectively.

For the molecule `O=C(NCCN1CCC2(CC1)C(=O)NCN2c1ccc(F)c(F)c1)c1ccc(F)cc1`, the Selectivity ratio in the test listed under Homo sapiens came to 9. For the same molecule, the 50% inhibitory concentration (IC50) is 5780 nM on Phospholipase D1 and 660 nM against Phospholipase D2.

On to `O=C(NCCN1CCC2(CC1)C(=O)NCN2c1cccc(Cl)c1)c1cc2cc(F)ccc2[nH]1`, for which the Selectivity ratio in the test filed under Homo sapiens is 3.4. Moreover, the IC50 at Phospholipase D1 came out at 250 nM; on Phospholipase D2, 73 nM.

`C[C@@H](CN1CCC2(CC1)C(=O)NCN2c1cccc(F)c1)NC(=O)c1ccc2ccccc2c1`: the half-inhibitory concentration (IC50) was 10 nM at Phospholipase D1 and 60 nM on Phospholipase D2.

As for `O=C(NCCN1CCC2(CC1)C(=O)NCN2c1ccc(Cl)cc1)c1cnc2ccccc2c1`, the Selectivity ratio in the test filed under Homo sapiens was 17. Besides, the results for the half-inhibitory concentration (IC50) at Phospholipase D1 and against Phospholipase D2 were 3500 nM and 200 nM, respectively.

As to `O=C(NCCN1CCC2(CC1)C(=O)NCN2c1ccc(F)cc1)c1cnc2ccccc2c1`, in the test listed under Homo sapiens, the Selectivity ratio is 50. For the same molecule, the IC50 on Phospholipase D1 was determined as 2000 nM; at Phospholipase D2 it was 40 nM.

Regarding `O=C(NCCN1CCC2(CC1)C(=O)NCN2c1ccc(F)cc1)c1ccc2ccccc2c1`, the Selectivity ratio in the test listed under Homo sapiens stood at 21. The IC50 against Phospholipase D1 was 1700 nM; against Phospholipase D2, 80 nM.

Turning to `O=C(NCCN1CCC2(CC1)C(=O)NCN2c1ccc(Br)cc1)c1cc2cc(F)ccc2[nH]1`, the Selectivity ratio in the test filed under Homo sapiens was 27. The IC50 against Phospholipase D1 was found to be 2660 nM; at Phospholipase D2, 100 nM.

`O=C(NCCN1CCC2(CC1)C(=O)NCN2c1ccc(Br)cc1)c1cnc2ccccc2c1`: the Selectivity ratio in the test filed under Homo sapiens came out at 8. For the same molecule, the half-maximal inhibitory concentration (IC50) amounted to 2700 nM against Phospholipase D1 and 360 nM on Phospholipase D2.

Regarding `O=C(NCCN1CCC2(CC1)C(=O)NCN2c1ccc(F)c(F)c1)c1cnc2ccccc2c1`, the Selectivity ratio in the test listed under Homo sapiens is 30. The concentration for half-maximal inhibition (IC50) came out at 2060 nM against Phospholipase D1 and 70 nM against Phospholipase D2.

Turning to `O=C(NCCN1CCC2(CC1)C(=O)NCN2c1cccc(Cl)c1)c1ccc2ccccc2c1`, the Selectivity ratio in the test filed under Homo sapiens was 4. In addition, the IC50 on Phospholipase D1 was determined as 1200 nM; against Phospholipase D2, 290 nM.

On to `O=C(NCCN1CCC2(CC1)C(=O)NCN2c1cccc(F)c1)c1ccc(F)cc1`, for which the concentration for half-maximal inhibition (IC50) at Phospholipase D2 was 6700 nM. This lies in the single-digit micromolar range.

Turning to `O=C(NCCN1CCC2(CC1)C(=O)NCN2c1ccc(Cl)cc1)c1ccc2ccccc2c1`, in the test listed under Homo sapiens, the Selectivity ratio worked out at 3.5. Further, the IC50 against Phospholipase D1 was 2270 nM; against Phospholipase D2 it was 655 nM.

For `O=C(NCCN1CCC2(CC1)C(=O)NCN2c1ccc(Br)cc1)c1ccc(F)cc1`, the Selectivity ratio in the test listed under Homo sapiens amounted to 1. The 50% inhibitory concentration (IC50) worked out at 10000 nM at Phospholipase D1 and 8000 nM against Phospholipase D2.

As to `O=C(NCCN1CCC2(CC1)C(=O)NCN2c1cccc(F)c1)c1cc2cc(F)ccc2[nH]1`, the Selectivity ratio in the test filed under Homo sapiens amounted to 8. Moreover, the figures for the IC50 against Phospholipase D1 and against Phospholipase D2 were 210 nM and 25 nM, respectively.

Turning to `O=C(NCCN1CCC2(CC1)C(=O)NCN2c1cccc(Cl)c1)c1cnc2ccccc2c1`, in the test listed under Homo sapiens, the Selectivity ratio is 5. Further, the concentration for half-maximal inhibition (IC50) stood at 870 nM against Phospholipase D1 and 165 nM against Phospholipase D2.

As for `O=C(NCCN1CCC2(CC1)C(=O)NCN2c1ccc(Cl)cc1)c1ccc(F)cc1`, in the test filed under Homo sapiens, the Selectivity ratio turned out to be 1. Further, the IC50 was 5590 nM against Phospholipase D1 and 5670 nM against Phospholipase D2.

`O=C(NCCN1CCC2(CC1)C(=O)NCN2c1cccc(Cl)c1)c1ccc(F)cc1`: the Selectivity ratio in the test filed under Homo sapiens came to 50. The values for the IC50 at Phospholipase D1 and against Phospholipase D2 were 3470 nM and 70 nM, respectively.
